# In US10577374B2, “Bruton's tyrosine kinase inhibitors” (priority 2009, dated 2020):
# Molecular target: BTK (Homo sapiens (Human), UniProt Q06187)
# Experiment: In vitro BTK kinase assay: BTK-POLYGAT-LS ASSAY
# Assay type: biochemical
# Settings: read-out: IC50 (10 uM ATP), polyGAT 100 nM, BTK 0.25 nM
# Sequence of BTK (Q06187 whole entry): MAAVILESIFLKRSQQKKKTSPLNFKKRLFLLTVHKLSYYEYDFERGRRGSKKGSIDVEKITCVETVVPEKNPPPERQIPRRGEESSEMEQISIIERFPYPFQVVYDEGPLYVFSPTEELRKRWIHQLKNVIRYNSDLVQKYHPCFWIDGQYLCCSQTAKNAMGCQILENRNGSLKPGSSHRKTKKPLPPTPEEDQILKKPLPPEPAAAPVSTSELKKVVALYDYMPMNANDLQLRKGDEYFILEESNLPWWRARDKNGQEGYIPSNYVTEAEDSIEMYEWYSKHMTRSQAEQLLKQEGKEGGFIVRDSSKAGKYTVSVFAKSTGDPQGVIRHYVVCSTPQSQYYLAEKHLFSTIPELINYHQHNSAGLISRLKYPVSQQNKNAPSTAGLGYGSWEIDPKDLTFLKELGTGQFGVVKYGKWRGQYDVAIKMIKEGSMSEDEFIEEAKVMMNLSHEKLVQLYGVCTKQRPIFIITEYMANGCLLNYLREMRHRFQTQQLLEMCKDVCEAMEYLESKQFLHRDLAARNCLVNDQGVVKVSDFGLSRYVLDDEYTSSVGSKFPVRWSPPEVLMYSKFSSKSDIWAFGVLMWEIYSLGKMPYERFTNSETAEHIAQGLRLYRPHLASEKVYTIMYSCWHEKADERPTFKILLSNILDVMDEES
substance,measurement,value
"1-(3-(1-(methylsulfonyl)-4-(7H-pyrrolo[2,3-d]pyrimidin-4-yl)piperazin-2-yl)phenyl)-3-phenylurea [compound 128]",IC50,> 10 µM
